Assay results: US20220096516A1, “OLIGONUCLEOTIDE MOLECULE AND APPLICATION THEREOF IN TUMOR THERAPY” (Ractigen Therapeutics, priority 2019, published 2022)
d = 2'-deoxy (DNA); r = 2'-OH (RNA)

System: LHPP gene
Assay: High-throughput screening of saRNAs targeting LHPP promoter: LHPP mRNA by one-step RT-qPCR in Huh7 cells
Format: cell-based, human
Details: 10 nM saRNA, 72 hours, relative to control (Mock)
Method: Human liver cancer cell line Huh7 was cultured in DMEM medium (Gibco), containing 10% of calf serum (Sigma-Aldrich) and 1% of penicillin/streptomycin (Gibco). The cells were cultured at 5% CO2 and 37° C. According to the instructions provided by the manufacturer, RNAiMax (Invitrogen, Carlsbad, Calif.) was used to transfect small activating RNAs at a concentration of 10 nM (unless otherwise specified).
At the end of transfection, the media were discarded, and each well was washed with 150 μL of PBS once. After discarding the PBS, 50 μL of cell lysis buffer (Takara) was added to each well and incubated at room temperature for 5 min. 1 μL of the resulted cell lysis was taken from each well and analyzed by qPCR on an ABI 7500 fast real-time PCR system (Applied Biosystems) using a one-step TB Green™ PrimeScrip™ RT-PCR kit II (Takara, RR086A) Each transfection sample was repeatedly amplified in 3 replicate wells.
Reaction conditions were as follows: reverse transcription reaction (stage 1): 5 min at 42° C., 10 s at 95° C.; PCR reaction (stage 2): 5 s at 95° C., 20 s at 60° C., 45 cycles of amplification. HPRT1 and TBP were used as internal reference genes. PCR primers used for amplifying LHPP, HPRT1 and TBP genes are shown in Table 2, wherein LHPP was amplified using the LHPP F1/R1 primer pair.
To calculate the relative expression level (Erel) of LHPP (target gene) in an saRNA-transfected sample relative to control treatment (Mock), the Ct values of the target gene and the two internal reference genes were substituted into formula 1
Erel=2^(CtT^m^-CtT^s^)/((2^(CtR1^m^-CtR1^s^)*2^(CtR2^m^-CtR2^s^))^(1/2))
wherein CtTm was the Ct value of the target gene from the control (Mock) sample; CtTs was the Ct value of the target gene from the saRNA-treated sample; CtR1m was the Ct value of the internal reference gene 1 from the control (Mock) sample; CtR1s was the Ct value of the internal reference gene 1 from the saRNA-treated sample; CtR2m was the Ct value of the internal reference gene 2 from the control (Mock) sample; and CtR2s was the Ct value of the internal reference gene 2 from the saRNA-treated sample.
In order to obtain saRNAs capable of activating LHPP transcription, Huh7 cells were transfected with each of the aforementioned 290 saRNAs with a transfection concentration of 10 nM, and 72 hours later, according to the same method as described above, the cells were lysed and analyzed by one-step RT-qPCR to obtain the relative (compared with the control (Mock)) expression level of LHPP gene for each saRNA-treated sample. […] The observed maximum activation and maximum inhibition is 3.46 fold and 0.49 fold, respectively, saRNAs with activating activity are referred to as activating saRNAs, and the saRNAs with inhibiting activity are referred to as inhibiting saRNAs.

Row | Substance | Fold of changes in relative LHPP mRNA expression level | Fold of changes in relative LHPP mRNA expression level (log2)
1 | RAG7-678: saRNA duplex; sense CAUCUAUGCAGGGCUGUUATT (SEQ ID NO: 63), antisense UAACAGCCCUGCAUAGAUGTT (SEQ ID NO: 227) (sugars from the 5' end r19 d2, backbone not given here) | 1.33 fold | 0.41 log2
2 | RAG7-917: saRNA duplex; sense UCUCUUCUUUGAAAGCUCATT (SEQ ID NO: 64), antisense UGAGCUUUCAAAGAAGAGATT (SEQ ID NO: 228) (sugars from the 5' end r19 d2, backbone not given here) | 1.32 fold | 0.40 log2
3 | RAG7-899: saRNA duplex; sense AAAGCUAUGUUGGACCAGATT (SEQ ID NO: 84), antisense UCUGGUCCAACAUAGCUUUTT (SEQ ID NO: 248) (sugars from the 5' end r19 d2, backbone not given here) | 1.26 fold | 0.33 log2
4 | RAG7-193: saRNA duplex; sense GUGCCUUCUUGUCUCAAUUTT (SEQ ID NO: 113), antisense AAUUGAGACAAGAAGGCACTT (SEQ ID NO: 277) (sugars from the 5' end r19 d2, backbone not given here) | 1.19 fold | 0.26 log2
5 | RAG7-170: saRNA duplex; sense UUUGACCUUUCUUAGGGACTT (SEQ ID NO: 132), antisense GUCCCUAAGAAAGGUCAAATT (SEQ ID NO: 296) (sugars from the 5' end r19 d2, backbone not given here) | 1.16 fold | 0.21 log2
6 | RAG7-909: saRNA duplex; sense UUGAAAGCUCAAAGCUAUGTT (SEQ ID NO: 23), antisense CAUAGCUUUGAGCUUUCAATT (SEQ ID NO: 187) (sugars from the 5' end r19 d2, backbone not given here) | 1.53 fold | 0.61 log2
7 | RAG7-830: saRNA duplex; sense AUUGAGGAAACUCCUCCCUTT (SEQ ID NO: 36), antisense AGGGAGGAGUUUCCUCAAUTT (SEQ ID NO: 200) (sugars from the 5' end r19 d2, backbone not given here) | 1.45 fold | 0.54 log2
8 | RAG7-886: saRNA duplex; sense ACCAGAAGUAAAGUGUUCUTT (SEQ ID NO: 25), antisense AGAACACUUUACUUCUGGUTT (SEQ ID NO: 189) (sugars from the 5' end r19 d2, backbone not given here) | 1.52 fold | 0.60 log2
9 | RAG7-911: saRNA duplex; sense CUUUGAAAGCUCAAAGCUATT (SEQ ID NO: 160), antisense UAGCUUUGAGCUUUCAAAGTT (SEQ ID NO: 324) (sugars from the 5' end r19 d2, backbone not given here) | 1.11 fold | 0.15 log2
10 | RAG7-698: saRNA duplex; sense GCCCAGGUCCUAUGCAUCCTT (SEQ ID NO: 118), antisense GGAUGCAUAGGACCUGGGCTT (SEQ ID NO: 282) (sugars from the 5' end r19 d2, backbone not given here) | 1.18 fold | 0.24 log2
11 | RAG7-780: saRNA duplex; sense AAUGUAGCAUCGAGUGGUATT (SEQ ID NO: 142), antisense UACCACUCGAUGCUACAUUTT (SEQ ID NO: 306) (sugars from the 5' end r19 d2, backbone not given here) | 1.14 fold | 0.19 log2
